Experiments:
Format in all cases: cell-based
ER = molecular target: T1, ER (Homo sapiens, UniProt P03372); test: co-transfection assay, ER antagonist
T1 construct: expressed in transfected cells; host or cells: CV-1 cells
Experimental: (§1) CV-1 cells (African green monkey kidney fibroblasts) were cultured in the presence of Dulbecco's Modified Eagle Medium (DMEM) supplemented with 10% charcoal resin-stripped fetal bovine serum (CH-FBS) then transferred to 96-well microtiter plates one day prior to transfection.
(§2) Three to four replicates were used for each sample.
(§3) After 40 hours, the cells were washed with PBS, lysed with a Triton X-100-based buffer and assayed for LUC and β-Gal activities using a luminometer or spectrophotometer, respectively. For each replicate, the normalized response (NR) was calculated as: […]

MR = molecular target: T2, MR (Homo sapiens, UniProt P08235); test: co-transfection assay, MR antagonist
T2 construct: expressed in transfected cells; host or cells: CV-1 cells
T2 sequence (P08235 1-984): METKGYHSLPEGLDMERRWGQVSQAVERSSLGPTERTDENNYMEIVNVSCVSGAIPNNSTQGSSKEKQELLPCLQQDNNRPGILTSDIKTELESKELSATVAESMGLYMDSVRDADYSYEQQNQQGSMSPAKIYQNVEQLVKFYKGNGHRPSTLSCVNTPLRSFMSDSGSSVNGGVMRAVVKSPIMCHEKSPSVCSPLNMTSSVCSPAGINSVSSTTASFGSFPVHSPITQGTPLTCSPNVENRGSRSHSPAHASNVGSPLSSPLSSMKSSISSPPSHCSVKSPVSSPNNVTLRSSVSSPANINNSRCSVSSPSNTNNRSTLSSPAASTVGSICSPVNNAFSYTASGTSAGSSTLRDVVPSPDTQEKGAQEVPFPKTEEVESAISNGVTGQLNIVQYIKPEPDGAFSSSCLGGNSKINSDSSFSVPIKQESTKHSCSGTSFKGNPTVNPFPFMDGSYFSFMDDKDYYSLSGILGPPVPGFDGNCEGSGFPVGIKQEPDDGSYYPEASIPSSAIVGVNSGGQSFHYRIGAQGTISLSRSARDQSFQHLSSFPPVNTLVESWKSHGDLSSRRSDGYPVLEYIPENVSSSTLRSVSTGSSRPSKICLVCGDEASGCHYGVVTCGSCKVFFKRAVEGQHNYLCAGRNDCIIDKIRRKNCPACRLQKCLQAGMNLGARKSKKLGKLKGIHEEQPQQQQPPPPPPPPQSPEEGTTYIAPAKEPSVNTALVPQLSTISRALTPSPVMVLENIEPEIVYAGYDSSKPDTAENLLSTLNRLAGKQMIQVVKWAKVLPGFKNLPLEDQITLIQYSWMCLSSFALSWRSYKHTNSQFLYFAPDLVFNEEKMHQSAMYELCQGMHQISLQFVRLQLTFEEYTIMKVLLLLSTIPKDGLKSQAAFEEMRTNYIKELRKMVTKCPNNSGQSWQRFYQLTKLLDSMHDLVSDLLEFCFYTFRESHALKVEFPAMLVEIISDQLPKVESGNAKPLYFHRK
Experimental: as §1, §2, §3

PR = molecular target: T3, PR (Homo sapiens, UniProt P06401); test: co-transfection assay, PR agonist
T3 construct: expressed in transfected cells; host or cells: CV-1 cells
T3 sequence (P06401 1-933): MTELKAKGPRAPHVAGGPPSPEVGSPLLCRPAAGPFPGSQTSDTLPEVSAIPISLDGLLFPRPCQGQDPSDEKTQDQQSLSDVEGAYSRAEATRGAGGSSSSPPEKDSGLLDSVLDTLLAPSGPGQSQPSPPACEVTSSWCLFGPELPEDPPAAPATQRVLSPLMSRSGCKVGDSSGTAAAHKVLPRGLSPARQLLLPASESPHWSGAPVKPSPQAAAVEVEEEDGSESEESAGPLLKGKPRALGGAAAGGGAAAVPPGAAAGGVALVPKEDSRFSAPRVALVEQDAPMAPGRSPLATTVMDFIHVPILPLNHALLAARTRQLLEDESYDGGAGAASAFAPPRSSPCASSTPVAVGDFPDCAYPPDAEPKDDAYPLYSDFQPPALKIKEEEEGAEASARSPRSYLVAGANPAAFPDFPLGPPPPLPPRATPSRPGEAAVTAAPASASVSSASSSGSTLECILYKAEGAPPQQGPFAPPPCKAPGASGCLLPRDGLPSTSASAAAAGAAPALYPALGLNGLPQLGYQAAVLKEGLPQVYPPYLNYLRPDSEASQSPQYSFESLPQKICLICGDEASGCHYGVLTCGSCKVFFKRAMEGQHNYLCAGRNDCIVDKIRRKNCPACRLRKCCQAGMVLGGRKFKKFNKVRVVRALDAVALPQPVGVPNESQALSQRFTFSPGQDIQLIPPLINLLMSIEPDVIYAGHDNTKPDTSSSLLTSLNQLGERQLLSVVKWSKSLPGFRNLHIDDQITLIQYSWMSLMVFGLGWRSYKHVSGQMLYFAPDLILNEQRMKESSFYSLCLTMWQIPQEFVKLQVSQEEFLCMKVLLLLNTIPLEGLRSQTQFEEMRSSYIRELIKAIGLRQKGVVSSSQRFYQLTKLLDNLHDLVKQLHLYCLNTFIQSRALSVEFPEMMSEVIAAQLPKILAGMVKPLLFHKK
Experimental: as §1, §2, §3

T1 sequence (P03372 whole entry): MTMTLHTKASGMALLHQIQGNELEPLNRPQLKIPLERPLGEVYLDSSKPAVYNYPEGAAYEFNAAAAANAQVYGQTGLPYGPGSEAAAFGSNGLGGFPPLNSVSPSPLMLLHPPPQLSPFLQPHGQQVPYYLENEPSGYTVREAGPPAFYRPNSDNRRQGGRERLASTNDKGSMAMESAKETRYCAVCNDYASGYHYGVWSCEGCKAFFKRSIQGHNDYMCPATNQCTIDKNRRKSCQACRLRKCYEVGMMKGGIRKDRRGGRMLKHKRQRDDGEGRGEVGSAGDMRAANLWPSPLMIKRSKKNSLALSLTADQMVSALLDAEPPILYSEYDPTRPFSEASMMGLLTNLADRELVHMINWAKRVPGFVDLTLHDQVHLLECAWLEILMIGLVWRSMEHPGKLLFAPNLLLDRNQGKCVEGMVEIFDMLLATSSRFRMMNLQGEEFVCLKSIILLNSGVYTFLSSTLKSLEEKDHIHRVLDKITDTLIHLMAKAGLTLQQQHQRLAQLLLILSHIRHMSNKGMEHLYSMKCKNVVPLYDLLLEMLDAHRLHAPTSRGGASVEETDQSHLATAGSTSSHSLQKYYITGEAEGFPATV

SMILES | IC50 (ER) | IC50 (MR) | EC50 (PR)
O=C1COc2cc3[nH]c(=O)cc(C(F)(F)F)c3cc2N1CC(F)(F)F [Compound 137, 1,6-Dihydro-1-(2,2,2-trifluoroethyl)-9-(trifluoromethyl)-3H-[1,4]oxazino[3,2-g]-quinolin-2,7-dione] | > 10 µM | > 10 µM | > 10 µM
CCN1CCOc2cc3c(cc21)c(C(F)(F)F)cc(=O)n3C [Compound 104, 1-Ethyl-1,2,3,6-tetrahydro-6-methyl-9-(trifluoromethyl)-7H-[1,4]oxazino[3,2-g]quinolin-7-one] | > 10 µM | 1.8 µM | > 10 µM
O=c1cc(C(F)(F)F)c2cc3c(cc2[nH]1)OCCN3CC(F)(F)F [Compound 105, 1,2,3,6-Tetrahydro-1-(2,2,2-trifluoroethyl)-9-(trifluoromethyl)-7H-[1,4]oxazino[3,2-g]quinolin-7-one] | > 10 µM | > 10 µM | > 10 µM
CN1CCOc2cc3c(cc21)c(C(F)(F)F)cc(=O)n3C [Compound 102, 1,2,3,6-Tetrahydro-1,6-dimethyl-9-(trifluoromethyl)-7H-[1,4]oxazino[3,2-g]quinolin-7-one] | 5.9 µM | > 10 µM | > 10 µM

— patent US6462038B1, “Androgen receptor modulator compounds and methods” (Ligand Pharmaceuticals, Inc., priority 1999, dated 2002)
